Results as given in publication PMC7203344, “Sirtuin 1 Inhibiting Thiocyanates (S1th)—A New Class of Isotype Selective Inhibitors of NAD^+ Dependent Lysine Deacetylases” (Frontiers in Oncology, 2020).

Key:
[1] = target: T1, human Sirt2 (Homo sapiens, UniProt Q8IXJ6); assay: Homogeneous ZMAL-based fluorescence assay, Sirt2; format: biochemical; settings: 4th round
T1 construct: made in house; host or cells: E. coli BL21 Star (DE3)
T1 sequence (Q8IXJ6 56-356): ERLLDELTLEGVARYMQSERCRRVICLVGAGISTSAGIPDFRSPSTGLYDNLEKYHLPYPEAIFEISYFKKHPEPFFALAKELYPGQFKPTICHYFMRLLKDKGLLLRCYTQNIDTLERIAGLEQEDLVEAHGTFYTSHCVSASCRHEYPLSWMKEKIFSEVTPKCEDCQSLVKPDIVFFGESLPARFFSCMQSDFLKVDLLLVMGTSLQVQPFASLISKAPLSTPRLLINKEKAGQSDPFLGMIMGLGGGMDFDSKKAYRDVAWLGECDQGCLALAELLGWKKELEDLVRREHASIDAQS
Protocol: (§1) Recombinant human Sirt5_37−310 was purchased readily in Tris Buffer [25 mM Tris, 100 mM NaCl, 5 mM DTT, 10% glycerol (v/v)] from Enzo Life Sciences (NY, USA). Human Sirt3_118−395 was expressed and purified as described previously ([54]). For expression of human Sirt1_134−747 and Sirt2_56−356 chemically competent cells of E. coli BL21 Star (DE3) were transformed with the expression vectors pET30S-hSirt1_134−747 or pET30S-hSirt2_56−356. Bacteria were grown at 37°C in 2×YT medium supplemented with 50 μg·mL^−1 of kanamycin to an OD600 of 0.6. Then isopropyl-β-D-1-thiogalactopyranoside (IPTG) was added to a final concentration of 1 mM to induce gene expression. After further cultivation at 20°C for 12 h, the cells were harvested by centrifugation for 15 min at 5,000 g. The cells were resuspended in lysis buffer [100 mM Tris/HCl buffer at pH 8.0, 150 mM NaCl and 10% (v/v) glycerol] and disrupted by ultrasonication (Branson Digital Sonifier 250) at 70% amplitude for 10 min (3 s working, 10 s pause). The crude extract was cleared by centrifugation at 100,000 g for 1 h, and the supernatant was loaded onto a Strep-Tactin Superflow cartridge (5 ml bed volume, IBA Lifescience, Germany). Target proteins were eluted with lysis buffer containing 5 mM D-Desthiobiotin (IBA Lifescience, Germany) and further separated by size-exclusion chromatography (Superdex S200 26/60, GE Healthcare, IL, USA) equilibrated in Tris/HCl buffer (20 mM, 150 mM NaCl, pH 8.0). Pure protein was concentrated by ultrafiltration, flash-frozen in liquid nitrogen and stored at −80°C until further use. Identity as well as purity were verified by SDS-PAGE ([55]) and protein concentration was determined by the bicinchoninic acid (BCA) method, using bovine serum albumin (BSA) as a standard ([56]). Deacetylase activity was confirmed to be NAD^+-dependent and could be inhibited with the physiological sirtuin inhibitor nicotinamide.
All compounds were tested in the trypsin-coupled high-throughput ZMAL-assay in black 96-well plates (OptiPlateTM−96F, black, 96 well, Pinch bar design, PerkinElmer, USA), using ZMAL (Z-Lys(acetyl)-AMC) as a substrate ([57]). Sirt1_134−747, Sirt2_56−356, and Sirt3_118−395 were mixed with 5 μL substrate (10.5 μM final assay concentration, diluted from a […] stock in DMSO) and 3 μL Inhibitor in DMSO at various concentrations or DMSO as a control [final DMSO concentration 5% (v/v)]. The mixture was supplemented with assay buffer (50 mM Tris/HCl, 137 mM NaCl, 2.7 mM KCl, 1 mM MgCL2, pH 8.0) to a total volume of 55 μL. Enzyme concentration was adjusted to get a final conversion of 20–30%. Addition of 5 μL NAD^+ (6 mM in assay buffer, final assay concentration of 500 μM) initiated the catalytic reaction and the plates were incubated at 37°C for 4 h with agitation at 140 rpm. The catalytic reaction was stopped by addition of 60 μL stop solution [50 mM Tris, 100 mM NaCl, 6.7% (V/V) DMSO, 5.5 U/μL trypsin, 8 μM nicotinamide, pH 8.0]. The plate was again incubated at 37°C and 140 rpm for 20 min to release free AMC from the deacetylated substrate by trypsin digestion. Afterwards, fluorescence intensity was measured in a microplate reader (λEx = 390 nm, λEm = 460 nm, BMG POLARstar Optima, BMG Labtech, Germany). An enzyme-free blank control and a 100% conversion control containing AMC instead of ZMAL were measured in addition. Inhibition was calculated in % in relation to a DMSO control after blank signal subtraction and IC50 values were determined using a non-linear regression to fit the dose-response curve with OriginPro 9G (OriginLab, USA). Pre-tests as well as IC50 determination was carried out at least twice in duplicates.

[2] = target: T2, human Sirt5 (Homo sapiens, UniProt Q9NXA8); assay: Homogeneous ZKsA-based fluorescence assay for Sirt5; format: biochemical; settings: inhibition tested @ 10 μM
T2 construct: Recombinant human Sirt5_37−310 was purchased readily in Tris Buffer; purchased Enzo Life Sciences (NY, USA)
T2 sequence (Q9NXA8 37-310): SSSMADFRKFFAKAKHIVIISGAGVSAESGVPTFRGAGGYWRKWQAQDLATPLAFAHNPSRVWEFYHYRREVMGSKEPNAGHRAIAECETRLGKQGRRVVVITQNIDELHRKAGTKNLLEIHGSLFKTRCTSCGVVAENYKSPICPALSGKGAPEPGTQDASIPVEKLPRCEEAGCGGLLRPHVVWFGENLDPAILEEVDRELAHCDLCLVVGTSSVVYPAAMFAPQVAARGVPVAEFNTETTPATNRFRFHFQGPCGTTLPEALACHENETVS
Protocol: as §1
Inhibition of Sirt5 was measured using a general procedure described before with small modifications ([58]). Sirt5 was purchased from Enzo Life Science (NY, USA) and used as received. Z-Lys(succ)-aminomethyl coumarin (ZKsA) was used as a substrate for Sirt5 mediated desuccinylation. In black 384-well non-binding plates (Greiner Bio-One, Monroe, NC) Sirt5 was mixed with 2 μL of ZKsA (1 mM stock solution in assay buffer [(50 mM Tris·HCl, 137 mM NaCl, 2.7 mM KCl, 1 mM MgCl2, pH 8.0, and 0.1% PEG8000), 100 μM final assay concentration], 1 μL of Inhibitor dissolved in DMSO or DMSO as a control [final DMSO concentration 5% (v/v)], 2 μL NAD^+ (5 mM stock solution in assay buffer, final assay concentration 500 μM) and filled up to a total volume of 20 μL with assay buffer. The mixture was incubated for 1 h at 37°C and 140 rpm before 4 μL of trypsin solution (50 mM Tris, 100 mM NaCl, pH 8.0, 6 mg/mL trypsin buffer, 1 mg/mL final assay concentration) was added to stop the enzymatic reaction. After 2 min of incubation at 37°C and 140 rpm fluorescence intensity was detected as described above. Sirt5 concentration was adjusted to 15–30% substrate conversion. A negative control without enzyme and a positive control containing AMC instead of ZKsA were performed as well. Inhibition was calculated in % in relation to a DMSO control and was determined in triplicates.

Structure (SMILES) | inhibition at 50 µM [1] | inhibition at 10 µM [2]
N#CSc1cc(SC#N)c(N)nc1N [PR-619, reference compound] | 36% | 28%
N#CSc1cccc(NC(=O)[C@H]2CC=CC[C@H]2C(=O)O)c1 [S1th 10] | < 10% | < 10%
CCCCNC(=O)Nc1cccc(SC#N)c1 [S1th 11] | < 10% | < 10%

The next lines start with the values.

inhibition at 50 µM [1] | inhibition at 10 µM [2] | Structure (SMILES)
< 10% | < 10% | COc1ccc(SC#N)cc1OCC(=O)N(CCC#N)CCC#N [S1th 12]
< 10% | < 10% | N#CSc1cccc(NS(=O)(=O)c2ccc3c(c2)OCCO3)c1 [S1th 13]
